{"source": "patent EP0197800A2", "about": "“5-Thiaprostaglandins E1 and process for producing same” (TEIJIN LIMITED, priority 1985, dated 1986)", "key": {"[1]": {"system": "ethanol ulcer", "assay": "inhibitory activity on ethanol ulcer", "type": "in vivo, SD-strain rats", "conditions": "rat ethanol ulcer, oral administration of 4 ug/kg", "experimental": "An ethanol ulcer test was carried out by the following procedure. SD-strain rats (body weight 200 to 220 g; 7 week old) were fasted for 24 hours, and a solution of the test compound in physiological saline buffered with phosphate buffer at pH 7.5 was orally administered. Thirty minutes after the administration, 75% ethanol was orally administered in a dose of 1 ml/kg. One hour later, the abdomen was incised to isolate the stomach. […] The total of these lengths was […] ulcer index. From this measurement, the inhibition of ulcer formatin by the test compound was calculated, to determine the IC50 value."}, "[2]": {"system": "indomethacin ulcer", "assay": "inhibitory activity on indomethacin ulcer", "type": "in vivo, Wister male rats", "conditions": "rat indomethacin ulcer, oral administration of 40 µg/kg", "experimental": "The inhibiting effect on ulcer formation induced by indomethacin was examined by using Wister male rats (7 weeks old, body weight 220 g) which were fasted for 24 hours, except for water, and then subjected to experiment.\nThe sample compound to be tested was dissolved in a phosphoric acid buffer (pH 7.4) containing 0.9% NaCl and the solution was orally administered to the rats. 30 minutes after the administration, indomethacin was orally administered to the rats at a dose of 20 mg/kg. 5 hours after the administratin of the indomethacin, the rats were killed and the ulcer formation in the stomach was examined by determining the length of the ulcer formation portion under a stereomicroscope. From this measurement, the inhibition of ulcer formation by the sampel compound was calculated to determine the IC50 values."}, "[3]": {"system": "blood pressure", "assay": "activity on blood pressure, intravenous injection under anesthesia", "type": "in vivo, male wister rats", "conditions": "Rattus norvegicus, i.v., dosage which caused a 20% lowering of the mean blood pressure, anesthetized rats", "experimental": "The actions of the 5-thiaprostaglandin of the invention on the blood pressure was examined by intravenous injection under anesthesia.\nUrehtane (500 mg/kg) and a-chloralose (100 mg/kg) were intraperitoneally administered to male wister rats weighing about 250 g. The rats were anesthetized and fixed in place.\nThe test compound was dissolved in a small amount of ethanol and diluted with physiological saline to adjust the final ethanol concentration to not more than 5%. The solution was intravenously injected into the rats through a catheter inserted into the femoral vein.\nThe blood pressure of the rats was measured by a pressure transducer through a catheter inserted into the carotid artery of the rats.\nThe action of the test compound on the blood pressure was expressed as the dosage (ED20 , ug/kg) of the test compound which caused a 20% lowering of the mean blood pressure before administration of the compound."}, "[4]": {"system": "platelet aggregation", "assay": "in vitro inhibitory activity of platelet aggregation (ADP-induced, platelet-rich plasma)", "type": "cell-based, Japanese domestic white male rabbits", "conditions": "Oryctolagus cuniculus; rabbit PRP, 10 µM ADP; minimum concentration which inhibited more than 50% of platelet aggregation; read-out: Inhibition of Platelet in vitro IC50", "experimental": "The in vitro platelet aggregation imhibiting activity of the compound of the invention was examined by using rabbits. Blood was withdrawn from the ear vein of Japanese domestic white male rabbits weighing 2.5 to 3.5 kg. A mixture of a 3.8% trisodium citrate solution and the blood in a ratio of 1:9 was centrifuged at a speed of 1000 rpm for 10 minutes. The upper layer was separated as platelet-rich plasma (PRP). The lower layer was further centrifuged at a speed of 2800 rpm for 10 minutes. The upper layer was separated as platelet- poor plasma (PPP). The number of plate lets was adjusted to 6 x 105/µℓ. to 7 x 105/µℓ. by diluting the PRP with PPP. 25 microliters of the test compound prepared as shown below was added with an amount of 25 to 250 microliters of PRP after the adjustment, and the mixture was pre-incubated at 37°C for 2 minutes, and then 10 µM (final) of ADP was added. Changes in transmission were recorded by using an aggregometer.\nThe drug was dissolved in ethanol to a concentration of 10 mg/ml, and seccussively diluted with phosphate buffer (pH 7.4) prior to use.\nThe rate of inhibition of platelet aggregation was determined from the following equation. [formula] • T0: the transmittance of the system containing the phosphate buffer, • T : the transmittance of the system to which the test drug was added. […]"}, "[5]": {"system": "platelet aggregation", "assay": "extra vivo inhibitory activity of platelet aggregation after oral administration", "type": "in vivo, Hartley-strain guinea pigs", "conditions": "guinea pigs, oral 0.3-3 mg/kg, blood drawn 1 hour after administration, N.E.: no-effect", "experimental": "The extra vivo platelet aggregation inhibitory activity of the 5-thiaprostaglandin E1 derivatives of the invention were measured by using guinea pigs. A test drug prepared as a 10% ethanol solution of the compound of the invention in ethanol diluted with 10% ethanol-0.5% Tween 80 in saline were orally administered in a dose of 0.3-3 mg/kg, and as a control 10% ethanol-0.5% Tween 80 in saline was orally administered in a dose of 1 ml/kg to Hartley-strain guinea pigs having a body weight of 350 to 450 g which had been fasted for 17 hours. 1 hour after the administration of the compound, blood was drawn off by carbiac puncture using trisodium citrate so that the ratio of the blood to 3.8% trisodium citrate was 9:1. The blood was centrifuged at a speed of 700 rpm for 10 minutes. The upper layer was separated as platelet-rich plasma (PRP). The lower layer was further centrifuged at a speed of 2800 rpm for 10 minutes. The upper layer was separated as platelet poor plasma (PPP). A 250 microliter amount of the - resulting PRP was taken into an aggregometer cuvette and incubated at 37°C for 2 minutes. […] The aggregation curve was recorded for 5 minutes. The maximum degree of aggregation of platelets within this time period was read, and the rate of inhibition of platelet aggregation was calculated from the following equation. […]"}}}
{"smiles": "CCCC[C@](C)(O)C/C=C/[C@H]1[C@H](O)CC(=O)[C@@H]1CCSCCCC(=O)OC", "note": "[Compound of example 6, (16S)-15-deoxy-16-hydroxy-16-methyl-5-thiaprostaglandin E1 methyl ester]", "values": [{"measurement": "prevention rate of ulcer generation", "setting": "[1]", "value": "about 50%"}, {"measurement": "preventive rate of ulcer generation", "setting": "[2]", "value": "about 50%"}, {"measurement": "ED20", "setting": "[3]", "value": 2.1, "unit": "µg/kg"}, {"measurement": "IC50", "setting": "[4]", "value": 60, "unit": "mg/L"}, {"measurement": "Inhibition of Platelet extra vivo ADP", "setting": "[5]; ADP-induced aggregation", "value": "N.E."}, {"measurement": "Inhibition of Platelet extra vivo collagen", "setting": "[5]; collagen-induced aggregation", "value": "N.E."}]}
